The conditions of test [1]: NCI screen; cited from earlier work.
Test [2] concerns Saccharmyces cerevisiae strains that have mutations in genes related to cell cycle control and DNA repair damage. As to conditions: Stage0 testing, single concentration, six yeast strains; cited from earlier work.
For test [3], the system named is human renal cancer cells ACHN. Kind of test: XTT cell proliferation assay, ACHN. The class given is cell-based. As to conditions: 5 days incubation, read-out: Antiproliferative activity, Kidney ACHN. Here is the method: (§1) Exemplary compounds 1-8 were tested for anti-cancer activity in vitro using human renal cancer cells (ACHN and CAK-1), human pancreatic cells (BXPC3 and SU-86-86), human prostate cancer cell (DU14), human colon carcinoma cells (HT-29 and KM-12), leukemia cells (HL60), brain cancer/tumour cells (SK-A-AS, U87-MG), and human non-small cell lung cancer cells (H460). Compounds 1-8 are the specific embodiments of Formula (I) and Formula (IV) as described above in this application.
(§2) The cells were maintained as a monolayer in a growth medium; McCoy's 5A modified medium (Sigma, St. Louis, Mo.), supplemented with 2 mM L-glutamine (Gibco, Grand Island, N.Y.), 10% fetal bovine serum (FBS) (Multicell, WISENT Inc. St-Bruno, QC), antibiotic-antimycotic (Multicell), at 37° C. in a 5% CO2-humidified incubator. Cells were transferred onto 150 mm tissue culture plates and grown until sub-confluency (70-80%) prior to their use. The in vitro antiproliferative activity of compounds was evaluated by incubating the cells with varying concentrations of exemplary compounds as shown in Table 1 for 5 days. The efficacy of these compounds in this cell proliferation assay was measured based in the ability of live cells to reduce the tetrazolium salt XTT to orange colored compounds of formazan (XTT cell proliferation kit IT, Roche Applied Science, Montreal, QC).

In test [4] the test system is human renal cancer cells CAKI-1. Description: XTT cell proliferation assay, CAKI-1. In kind it is cell-based. The note with it: 5 days incubation, read-out: Antiproliferative activity, Kidney CAKI-1. The protocol:
as §1, §2

The test system of test [5] is human pancreatic cells BXPC3. Description: XTT cell proliferation assay, BXPC3. In kind it is cell-based. As to conditions: 5 days incubation, read-out: Antiproliferative activity, Pancreas BXPC3. Here is the method: as §1, §2
(In general: Tetrazolium dyes change colour on reduction, which living cells bring about.)

Test [6] deals with human pancreatic cells SU-86-86. Description: XTT cell proliferation assay, SU-86-86. The class given is cell-based. The note with it: 5 days incubation, read-out: Antiproliferative activity, Pancreas SU-86-86. The protocol: as §1, §2
Test [7] has as its system human prostate cancer cell DU14. Description: XTT cell proliferation assay, DU14. The class given is cell-based. As to conditions: 5 days incubation, read-out: Antiproliferative activity, Pros. DU14. The protocol: as §1, §2
The test system of test [8] is human colon carcinoma cells KM12. Kind of test: XTT cell proliferation assay, KM12. The class given is cell-based. The note with it: 5 days incubation, read-out: Antiproliferative activity, Colon KM12. The protocol:
as §1, §2

Test [9] deals with human colon carcinoma cells HT-29. Kind of test: XTT cell proliferation assay, HT-29. In kind it is cell-based. As to conditions: 5 days incubation, read-out: Antiproliferative activity, Colon HT-29. The protocol: as §1, §2
Another test relates to leukemia cells HL60. Description: XTT cell proliferation assay, HL60. The class given is cell-based, human. The note with it: 5 days incubation, read-out: Antiproliferative activity, Leuk. HL60. The protocol: as §1, §2
For test [10], the system named is brain cancer/tumour cells SK-N-AS. Kind of test: XTT cell proliferation assay, SK-N-AS. In kind it is cell-based, human. The note with it: 5 days incubation, read-out: Antiproliferative activity, Brain SK-N-AS. The protocol:
as §1, §2

The test system of test [11] is brain cancer/tumour cells U87-MG. Description: XTT cell proliferation assay, U87-MG. The class given is cell-based, human. The note with it: 5 days incubation, read-out: Antiproliferative activity, Brain U87-MG. Here is the method:
as §1, §2

The subject of test [12] is non-small cell lung cancer cells H226. Kind of test: XTT cell proliferation assay, H226. In kind it is cell-based, human. The note with it: 5 days incubation, read-out: Antiproliferative activity, NSCLC H226. The protocol: [The procedure below names another cell line; the source lists this cell line under the same test.] as §1, §2
Test [13] relates to non-small cell lung cancer cells HOP-92. Kind of test: XTT cell proliferation assay, HOP-92. The class given is cell-based, human. As to conditions: 5 days incubation, read-out: Antiproliferative activity, NSCLC HOP-92. The protocol: [The procedure below names another cell line; the source lists this cell line under the same test.] as §1, §2
Test [14] has as its system non-small cell lung cancer cells HOP-62. Kind of test: XTT cell proliferation assay, HOP-62. In kind it is cell-based, human. The note with it: 5 days incubation, read-out: Antiproliferative activity, NSCLC HOP-62. Here is the method:
[The procedure below names another cell line; the source lists this cell line under the same test.] as §1, §2

For test [15], the system named is human non-small cell lung cancer cells H460. Kind of test: XTT cell proliferation assay, H460. The note with it: 5 days incubation, read-out: Antiproliferative activity, NSCLC H460. In kind it is cell-based. Here is the method:
as §1, §2

The test system of test [16] is non-small cell lung cancer cells EKVX. Kind of test: XTT cell proliferation assay, EKVX. In kind it is cell-based, human. As to conditions: 5 days incubation, read-out: Antiproliferative activity, NSCLC EKVX. The protocol:
[The procedure below names another cell line; the source lists this cell line under the same test.] as §1, §2

The subject of test [17] is Human Burkitt's lymphoma Raji cells. Description: Cell growth inhibition assay, Raji. The class given is cell-based. The note with it: five days of incubation, XTT; read-out: IC50 Raji (hs). The protocol:
(§3) In this study, compounds 1-8 were screened in vitro against a panel of four mouse lymphoma cell lines and two human lymphoma cell line for cell growth inhibition activity. Following treatment, half maximal inhibitory concentrations (IC50) were determined with the objective of selecting the most efficacious compounds for evaluation of in vitro absorption, distribution, metabolism, and excretion (ADME) screening.
Human Burkitt's lymphoma Raji cells (ATCC CCL-86) were grown in suspension in Roswell Park Memorial Institute (RPMI) 1640 medium supplemented with 10% fetal bovine serum (FBS), 10 mM HEPES KOH pH 7.4, and 2 mM sodium pyruvate at 37° C. in an atmosphere of 5% CO2 in air. Logarithmically growing cells were routinely sub-cultured twice weekly. Briefly, cells were collected by centrifugation, resuspended in pre-warmed media, and diluted 1:10 into a 75 cm^2 flask.
(§4) Cells were subcultured and 4×10^3 cells (in 50 μL) were transferred to each well in a Falcon 96-well tissue culture plate. Exemplary compounds were dissolved in pure dimethyl sulphoxide (DMSO) at a concentration of 10 mM. From this 10 mM stock solution, 12 successive serial dilutions were made in DMSO (2.5 fold dilutions), ranging from 0.52 μM to 10 mM. Using these stock dilutions, 5 μL of each were added to 500 μL of media, and 50 μL of this was added to the cells. The final concentrations being tested ranged from 0.0026 μM to 50 μM. Each concentration was tested in triplicate, and DMSO and untreated cells were also included as controls. After five days of incubation with the compounds, cell viability was determined using the XTT cell proliferation kit (Roche, Cat. No. 11 465 015 001). Following the XTT protocol, 4.5-24 hours after addition of the reagent, the plates were read in a μQuant 96-well plate spectrophotometer (Biotek Instruments Inc.) and the results analyzed to determine the IC50.

Test [18] concerns human Burkitt's lymphoma Ramos cells. Description: Cell growth inhibition assay, Ramos. The class given is cell-based. The note with it: five days of incubation, XTT; read-out: IC50 Ramos (hs). Here is the method:
as §3
(§5) Similarly, human Burkitt's lymphoma Ramos cells (ATCC CRL-1596) were grown in suspension in Roswell Park Memorial Institute (RPMI) 1640 medium supplemented with 10% fetal bovine serum (FBS), 10 mM HEPES KOH pH 7.4, and 2 mM sodium pyruvate. Mouse P388D1 (ATCC CCL-46) and WR19L (ATCC TIB-52) cells were grown in suspension in Dulbecco's Modified Eagle Medium (DMEM) with 10% fetal bovine serum (FBS), 10 mM HEPES, and 2 mM sodium pyruvate. Mouse WEHI231 (ATCC CRL-1702) and EL4 (ATCC TIB-39) cells were grown in suspension in DMEM with 10% fetal bovine serum (FBS), 10 mM HEPES KOH pH 7.4, 2 mM sodium pyruvate, and 0.05 mM β-mercaptoethanol. All cells were maintained at 37° C. in an atmosphere of 5% CO2 in air. Logarithmically growing cells were routinely sub-cultured twice weekly. Briefly, cells were collected by centrifugation, resuspended in pre-warmed media, and diluted 1:10 into a 75 cm^2 flask.
as §4

In the next test the test system is EL4 (mouse, lymphoma). Kind of test: Cell growth inhibition assay, EL4. The note with it: five days of incubation, XTT; read-out: IC50 EL4 (ms). In kind it is cell-based. The protocol: as §3, §5, §4
For another test, the system named is P388D1 (mouse, lymphoma). Description: Cell growth inhibition assay, P388D1. The class given is cell-based. As to conditions: five days of incubation, XTT; read-out: IC50 P388D1 (ms). The protocol:
as §3, §5, §4

In test [19] the test system is WEHI 231 (mouse, B-cell lymphoma). Description: Cell growth inhibition assay, WEHI231. The class given is cell-based. The note with it: five days of incubation, XTT; read-out: IC50 WEHI231 (ms). The protocol: as §3, §5, §4
The test system of a further test is WR19L (mouse, lymphoma). Kind of test: Cell growth inhibition assay, WR19L. The note with it: five days of incubation, XTT; read-out: IC50 WR19L (ms). The class given is cell-based. Here is the method:
as §3, §5, §4

Test [20] deals with panel of human and mouse lymphoma cell lines. Description: Cell growth inhibition, whole lymphoma panel (mean IC50, mean rank). The class given is cell-based. As to conditions: mean over six lymphoma cell lines. The protocol: as §3, §4
In vitro potency was assessed using eight exemplary compounds against a panel of human and mouse lymphoma cell lines (Table 4). […] To compare the efficacy of the compounds in cell growth inhibition across the entire panel of cell lines screened, the eight compounds were ranked according to efficacy against each cell line with a numerical value of one indicating most efficacious (lowest IC50 value) and eight being the least efficacious (highest IC50 value).

Read-outs that look alike come from different tables or passages of the source.

As for `Cc1ccccc1-c1nc2c3ccccc3c3ccccc3c2[nH]1` [NCI #338970], the “activity in the In Vivo Anticancer Drug Screen” value in test [1] was “None of these three compounds showed any activity”. Also, the “activity in the Yeast Anticancer Drug Screen” value in [2] was “active”.
In the case of `FC1(F)Oc2ccc(-c3nc4c5cccnc5c5ncccc5c4[nH]3)cc2O1` [Compound 7], the IC50 in test [3] came out at 23 nM; in [4], 160 nM; in test [5], 40 nM; in [6], 110 nM; in [7], 30 nM; in [8], 400 nM. Moreover, the IC50 in test [9] is 390 nM; in the test with leukemia cells HL60, 30 nM; in test [10], 190 nM; in [11] it was 40 nM; in [12], 200 nM; in test [13], 170 nM. Also, the IC50 stood at 150 nM in [14]; 320 nM in test [15]; 220 nM in test [16]; 112 nM in test [17]; 83 nM in test [18]; 470 nM in the test with EL4 (mouse, lymphoma). For the same compound, the IC50 in the test with P388D1 (mouse, lymphoma) came out at 209 nM; in test [19] it was 7.6 nM; in the test with WR19L (mouse, lymphoma), 12 nM; in test [20], 149 nM.
Regarding `FC1(F)Oc2ccc(-c3nc4c5cccnc5c5ncccc5c4[nH]3)cc2O1` [Compound 4], the IC50 in [3] was found to be 127 nM; in test [4] it was 170 nM; in test [5], 170 nM; in test [6] it was 26 nM; in test [7] it was 150 nM; in [8] it was 180 nM. Besides, the IC50 was determined as 300 nM in test [9]; 170 nM with leukemia cells HL60; 190 nM in [10]; 180 nM in [11]; 390 nM in test [12]; 170 nM in [13]. Also, the IC50 in test [14] was 170 nM; in test [15], 160 nM; in test [16] (Homo sapiens, EKVX, 120 h), 160 nM; in test [17], 54 nM; in test [18] it was 58 nM; in the test on EL4 (mouse, lymphoma) it was 486 nM. The IC50 with P388D1 (mouse, lymphoma) was determined as 243 nM; in [19], 6.4 nM; with WR19L (mouse, lymphoma), 5.8 nM; in test [20] it was 142 nM.
For `c1ccc2c(-c3nc4ccccc4[nH]3)cccc2c1` [NCI #144033], in test [1], the “activity in the In Vivo Anticancer Drug Screen” value is given as “None of these three compounds showed any activity”.
As for `CN(C)c1ccc(-c2nc3c4ccccc4c4ccccc4c3[nH]2)cc1` [NCI #322334], the “activity in the In Vivo Anticancer Drug Screen” value in test [1] is reported as “None of these three compounds showed any activity”.

(Values after patent publication US9309247B2, “2-substituted imidazo[4,5-D]phenanthroline derivatives and their use in the treatment of cancer” (Aptose Biosciences Inc., priority 2013, dated 2016).)
